Measurements taken from patent US12297285B2 (Orna Therapeutics, Inc., priority 2022, dated 2025).

Legend:
Assay in all cases: IRES screening, Gaussia luciferase from LNP-oRNA (Table 27)
Settings in all cases: Gaussia luciferase luminescence in supernatant 48 hours after LNP-oRNA transfection, normalized to control (caprine kobuvirus IRES)
[1] = system: primary human hepatocytes
[2] = system: activated primary human T cells
[3] = system: primary human skeletal myotubes

CC(C)=CCCC(C)CC(=O)OCCCCCCC(CCCCCCOC(=O)CC(C)CCC=C(C)C)OC(=O)CCCn1ccnc1C (stereo not drawn) [Lipid 10a-119]
[Mod] PHH Fold Change [1]: 0.6212 Fold Change | [Mod] T Fold Change [2]: 0.9876 Fold Change | [Mod] Fold Change Myo [3]: 0.198 Fold Change

CCCCCCCCCN(CCCCn1ccnc1C)C(CCCCCCCCC(=O)OCC(CCCC)CCCCCC)CCCCCCCCC(=O)OCC(CCCC)CCCCCC (stereo not drawn) [Lipid 10a-147]
[Mod] PHH Fold Change [1]: 0.5594 Fold Change | [Mod] T Fold Change [2]: 0.03662 Fold Change | [Mod] Fold Change Myo [3]: 0.04264 Fold Change

CC(C)CCCC(C)CC(=O)OCCCCCCN(CCCCCCOC(=O)CC(C)CCCC(C)C)CCCn1ccnc1 (stereo not drawn) [Lipid 10a-122]
[Mod] PHH Fold Change [1]: 0.8322 Fold Change | [Mod] T Fold Change [2]: 0.8876 Fold Change | [Mod] Fold Change Myo [3]: 0.3886 Fold Change

CC(CCOC(=O)CCCCCCCCN(CCCCCCCCC(=O)OCCC(C)CC(C)(C)C)CCCn1ccnc1)CC(C)(C)C (stereo not drawn) [Lipid 10a-104]
[Mod] PHH Fold Change [1]: 0.7745 Fold Change | [Mod] T Fold Change [2]: 0.1688 Fold Change | [Mod] Fold Change Myo [3]: 0.07607 Fold Change

CC(C)CCCC(C)CC(=O)OCCCCCCC(CCCCCCOC(=O)CC(C)CCCC(C)C)OC(=O)CCCn1ccnc1 (stereo not drawn) [Lipid 10a-116]
[Mod] PHH Fold Change [1]: 0.5299 Fold Change | [Mod] T Fold Change [2]: 0.03074 Fold Change | [Mod] Fold Change Myo [3]: 0.03921 Fold Change

CCCCC(C)CCC(=O)OCCCCCCN(CCCCCCOC(=O)CCC(C)CCCC)CCCn1ccnc1 (stereo not drawn) [Lipid 10a-112]
[Mod] PHH Fold Change [1]: 0.8075 Fold Change | [Mod] T Fold Change [2]: 0.637 Fold Change | [Mod] Fold Change Myo [3]: 0.3711 Fold Change

CCCCC(C)CCC(=O)OCCCCCCC(CCCCCCOC(=O)CCC(C)CCCC)OC(=O)CCCn1ccnc1 (stereo not drawn) [Lipid 10a-113]
[Mod] PHH Fold Change [1]: 0.8279 Fold Change | [Mod] T Fold Change [2]: 0.4373 Fold Change | [Mod] Fold Change Myo [3]: 0.3171 Fold Change

CCCCCCCCCCCCC(O)CN(CCCCCCCC(=O)OC(CCCCCCCC)CCCCCCCC)CCCn1ccnc1C (stereo not drawn) [Lipid 10a-150]
[Mod] PHH Fold Change [1]: 0.5147 Fold Change | [Mod] T Fold Change [2]: 0.02705 Fold Change | [Mod] Fold Change Myo [3]: 0.03864 Fold Change

CC(C)=CCCC(C)CC(=O)OCCCCCCN(CCCCCCOC(=O)CC(C)CCC=C(C)C)CCCn1ccnc1C (stereo not drawn) [Lipid 10a-125]
[Mod] PHH Fold Change [1]: 0.6492 Fold Change | [Mod] T Fold Change [2]: 0.6418 Fold Change | [Mod] Fold Change Myo [3]: 0.3827 Fold Change

CC(C)CCC(C)CCOC(=O)CCCCCCCC(CCCCCCCC(=O)OCCC(C)CCC(C)C)OC(=O)CCCn1ccnc1 (stereo not drawn) [Lipid 10a-101]
[Mod] PHH Fold Change [1]: 1.37 Fold Change | [Mod] T Fold Change [2]: 0.853 Fold Change | [Mod] Fold Change Myo [3]: 0.533 Fold Change

CC(C)=CCC/C(C)=C/C(=O)OCCCCCCC(CCCCCCOC(=O)/C=C(\C)CCC=C(C)C)OC(=O)CCCn1ccnc1 (stereo not drawn) [Lipid 10a-120]
[Mod] PHH Fold Change [1]: 0.4893 Fold Change | [Mod] T Fold Change [2]: 0.7019 Fold Change | [Mod] Fold Change Myo [3]: 0.2755 Fold Change

CCCCC/C=C\C/C=C\CCCCCCCC(=O)OCC(COC(=O)CCC(OCCCCCCCC)OCCCCCCCC)COC(=O)OCCCn1ccnc1 (stereo not drawn) [Lipid 10a-140]
[Mod] PHH Fold Change [1]: 0.7154 Fold Change | [Mod] T Fold Change [2]: 0.3995 Fold Change | [Mod] Fold Change Myo [3]: 0.1601 Fold Change

CC(CCOC(=O)CCCCCCCCC(CCCCCCCCC(=O)OCCC(C)CC(C)(C)C)OC(=O)CCCn1ccnc1)CC(C)(C)C (stereo not drawn) [Lipid 10a-105]
[Mod] PHH Fold Change [1]: 0.642 Fold Change | [Mod] T Fold Change [2]: 0.329 Fold Change | [Mod] Fold Change Myo [3]: 0.2496 Fold Change
